{
  "source": "patent US10285986B2",
  "about": "“Compounds and anti-tumor NQO1 substrates” (The Board of Trustees of the University of Illinois, priority 2011, dated 2019)",
  "key": {"[1]": {"assay": "Stability during incubation in plasma, whole blood and liver microsomes", "type": "in vitro ADME", "conditions": "rat, dog, and human", "procedure": "Absorption Systems measured the stability of 4-31 during incubation in rat, dog, and human plasma, whole blood, and liver microsomes. […] This is in strong contrast top-lap, which has been reported to be completely degraded within about 30 min in whole blood."}, "[2]": {"test_system": "DNA single strand damage, base lesions and double strand breaks", "assay": "DNA damage in vitro (alkaline comet assays, nuclear staining of DSB markers)", "type": "cell-based", "conditions": "data not shown"}, "[3]": {"test_system": "PAR-PARP1", "assay": "PARP1 hyperactivation (PAR-PARP1 formation) in vivo in orthotopic Lewis Lung Carcinoma model, immunoblotting", "design": "species or system NOD/SCID mice", "conditions": "iv at or near MTD", "procedure": "Antibodies that specifically detect poly(ADP-ribosyl)ated α-PAR (BD Pharmingen, San Jose, Calif.) proteins (e.g., the most abundant species, poly(ADP-ribosyl)ated PARP1, PAR-PARP1) and α-PARP1 (sc-8007, Santa Cruz Biotechnology) antibodies were used at 1:4000 and 1:2000 dilutions, respectively. α-Tubulin was monitored for loading.\nTo generate a known control to monitor the formation of poly(ADP-ribose)ylated-polymerase 1 (PAR-PARP1) in cells, LLC tumor cells were treated in vitro with hydrogen peroxide (H2O2, 0.5 μM) for 15 minutes, and whole cell protein lysates were separated by SDS-PAGE using the α-PAR (BD Pharmingen, San Jose, Calif.) antibody described above. PAR-PARP1 formation was then assessed by immunoblot analyses as previously described in Huang et al., Cancer Research, 2012.\nLLC cells (1.0×10^6) were intravenously (iv) injected into the tail veins of female 18-20 gram NOD/SCID mice. Establishment of tumor nodules in the lungs of exposed mice were confirmed by bioluminescence and mice (5/group) were treated intravenously (via tail vein injection) with: (i) hydroxypropyl-beta-cyclodextrin (HPRCD) vehicle alone; (ii) DNQ (7.5 mg/kg); (ii) DNQ-87 (14 mg/kg); (iii) DNQ-107 (10 mg/kg); or (vi) DNQ 9-251 (20 mg/kg) dissolved in HPRCD. At specific times indicated (in mins) after injection of vehicle or drug, mice were euthanized, lungs removed and tumor nodules harvested. […] Extracts from cells treated with H2O2 were used as controls for monitoring PAR-PARP1 formation in LLC tumor cells."}, "[4]": {"assay": "pKa, log P and log D of 4-31 measured by Absorption Systems", "type": "physicochemical", "excerpt": "A sample of compound 4-31 was delivered to Absorption Systems, a company that specializes in preclinical formulation and stability studies. […] They measured a few physical properties of 4-31, including pKa, log P and log D. Through potentiometric titrations they measured the pKa of 4-31 to be 8.0."}, "[5]": {"test_system": "A549 NSCLC cells", "assay": "A549 subcutaneous xenograft model in nude mice, with or without ionizing radiation", "type": "in vivo, Athymic nude mice", "conditions": "5 mg/kg by tail vein on days 1, 3, 5, 7, 9, with or without 2 grays radiation; preliminary", "procedure": "We are actively experimenting with DNQ in mouse models of cancer. The Boothman lab has completed a pilot study of DNQ in an A549 subcutaneous xenograft model in nude mice (Blanco et al., Cancer Res. 2010, 70, 3896). […] Athymic nude mice were inoculated with A549 NSCLC cells and established tumors were allowed to grow to ˜200 mm^3. Mice were assigned to one of six treatment groups—four mice per group. […] The doses of DNQ were chosen based on the observation that 10 mg/kg DNQ elicited adverse reactions in mice. The other three groups received the same DNQ regimen and also received 2 grays of ionizing radiation on each treatment day. Tumor volumes were measured over the subsequent weeks (FIG. 3)."}, "[6]": {"test_system": "NQO1+ cells", "assay": "NQO1-dependent lethality to cancer cells in vitro", "type": "cell-based", "excerpt": "NQO1 or PARP-1 knockdown spared the short-term lethality of DNQ-treated NQO1+ cells. BAPTA-AM (cytosolic Ca^2+ chelator) and catalase (enzymatic H2O2 scavenger) rescued DNQ-induced lethality by long-term survival assessments."}, "[7]": {"test_system": "healthy mice", "assay": "in vivo", "conditions": "mouse", "excerpt": "Because of the difficulty of repeated tail vein injections in mice, our group is using IP administration of compound.\nAll of these derivatives are currently being assessed for their maximum tolerated dose (MTD) in healthy mice. Compounds are formulated in HPβCD and delivered by IP injection to two mice once daily for five days."}},
  "data": [
    {"smiles": "Cc1cc(=O)[nH]c2c1C(=O)c1c(C)cc(=O)n(CC(C)C)c1C2=O", "note": "[Compound 87]", "values": [
      {"measurement": "stability in liver microsomes", "setting": "[1]; 1 hour", "value": "no sign of degradation"},
      {"measurement": "stability in plasma or whole blood", "setting": "[1]; 2 hours", "value": "no sign of degradation"},
      {"measurement": "DNA single strand damage and base lesions", "setting": "[2]; alkaline comet assays", "value": "extensive initial DNA single strand damage and base lesions"},
      {"measurement": "delay of DNA double strand break formation after initial DNA SSBs and base lesions", "setting": "[2]", "value": "15 to 30", "unit": "min"},
      {"measurement": "PAR-PARP1 formation in tumor tissue", "setting": "[3]", "value": "higher levels of PAR-PARP1 formation"},
      {"measurement": "logP", "setting": "[4]; octanol/0.15 M KCl, unionized compound", "value": 1.8},
      {"measurement": "logD", "setting": "[4]; pH 3.0, octanol/0.15 M KCl", "value": 1.78},
      {"measurement": "logD", "setting": "[4]; pH 4.0, octanol/0.15 M KCl", "value": 1.78},
      {"measurement": "logD", "setting": "[4]; pH 6.8, octanol/0.15 M KCl", "value": 1.76},
      {"measurement": "logD", "setting": "[4]; pH 7.0, octanol/0.15 M KCl", "value": 1.75},
      {"measurement": "logD", "setting": "[4]; pH 8.0, octanol/0.15 M KCl", "value": 1.49},
      {"measurement": "logD", "setting": "[4]; pH 9.0, octanol/0.15 M KCl", "value": 0.76},
      {"measurement": "pKa", "setting": "[4]; potentiometric titrations, N—H", "value": 8}
    ]},
    {"smiles": "Cc1cc(=O)[nH]c2c1C(=O)c1c(C)cc(=O)n(C)c1C2=O", "note": "[DNQ, Deoxynyboquinone, reference compound]", "values": [
      {"measurement": "rate of tumor growth", "setting": "[5]", "value": "slower the rate of tumor growth relative to control"},
      {"measurement": "LD90", "setting": "[6]; 2 hour exposure of NQO1+ cells", "value": "50 to 250", "unit": "nM"},
      {"measurement": "potency compared to β-lapachone", "setting": "[6]; cancer cell types, NQO1-dependent", "value": "20- to 100 fold"},
      {"measurement": "dose that elicited adverse reactions in mice", "setting": "[7]", "value": 10, "unit": "mg/kg"},
      {"measurement": "phenotype in mice at the MTD", "setting": "[7]; ip", "value": "lethargic and unresponsive to touch"},
      {"measurement": "PAR-PARP1 formation in tumor tissue", "setting": "[3]", "value": "formation of PAR-PARP1"}
    ]}
  ]
}
